Biological target: T1, glucagon receptor (Homo sapiens, UniProt P47871)
T1 construct: expressed in transfected cells; host or cells: Chinese Hamster Ovary cells (CHO-HGR), membranes
Experiment: glucagon receptor binding assay (125I-glucagon, CHO-HGR membranes)
Conditions: for inhibition at 20 µM: reported where 20 μM did not reduce glucagon binding by 50%; for IC50: 125I-glucagon, 60 min at room temperature, read-out: IC50
Protocol: The affinity for the glucagon receptor of compounds of the present invention is determined by the glucagon receptor binding assay. Membranes were prepared from Chinese Hamster Ovary cells expressing the glucagon receptor (CHO-HGR) by scraping the cells into hypotonic lysis buffer (10 mM Tris, pH 7.4, 2 mM EDTA, 5 mM MgCl2 and 1 mM PMSF) and subjecting the material to Polytron homogenization. Nuclei were removed by a 15-min 800×g centrifugation step conducted at 4° C. Membranes containing the receptor were collected by centrifugation at 15,000×gfor 15 min at 4° C. The membranes were washed once in lysis buffer and suspended in 0.25 M sucrose, 10 mM Tris, 5 mM EDTA, pH 7.4. The membranes were used in ligand binding studies as reported (Yoo-Warren, H., Willse, A. G., Hancock, N., Hull, J., McCaleb, M., and Livingston, J. Regulation of Rat Glucagon Receptor Expression. Biochem. Biophysical Res. Commun. 1994, 205, 347-353). In brief, 10 ug of membrane protein was incubated in 130 μl of binding buffer that consisted of 20 mM Tris, […], 1 mM EDTA, 1 mg/ml BSA, and 1 mg/ml bacitracin. The membrane suspension was placed in each well of a 96-well filtration plate (glass fiber type C, Millipore). […] Following the addition of test compound, 50 μl of ^125 I-glucagon (9 fmol) (NEN) was added to each well. Control wells contained membranes, 0.5% DMSO (solvent for test compounds), radiolabeled glucagon without and with excess native glucagon (1 μM) to establish nonspecific binding. The plates were incubated for 60 min at room temperature, and then filtered on a Mllipore vacuum apparatus. Following a wash step with ice-cold PBS/0.1% BSA, the filters were punched into test tubes, and the membrane bound radioactivity was determined.

T1 sequence (P47871 26-477): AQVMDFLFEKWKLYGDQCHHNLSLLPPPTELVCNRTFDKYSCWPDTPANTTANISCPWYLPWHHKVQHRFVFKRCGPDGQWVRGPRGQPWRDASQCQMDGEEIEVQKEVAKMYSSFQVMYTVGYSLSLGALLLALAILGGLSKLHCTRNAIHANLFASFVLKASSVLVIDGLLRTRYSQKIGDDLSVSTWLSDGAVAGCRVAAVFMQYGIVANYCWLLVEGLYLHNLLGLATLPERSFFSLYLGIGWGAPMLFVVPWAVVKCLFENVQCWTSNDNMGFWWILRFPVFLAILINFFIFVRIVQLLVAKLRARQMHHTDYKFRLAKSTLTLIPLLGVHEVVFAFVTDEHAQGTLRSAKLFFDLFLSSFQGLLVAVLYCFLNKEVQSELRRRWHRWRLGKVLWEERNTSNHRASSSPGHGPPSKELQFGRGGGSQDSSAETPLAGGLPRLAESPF

Row | SMILES | inhibition at 20 µM [%] | IC50 [nM]
1 | CC(C)c1nc(C(C)C)c(C(O)C(C)C)c(-c2ccc(F)cc2)c1CO (racemic) [Example 97, (±)-2,6-Diisopropyl-3-hydroxymethyl-4-(4-fluorophenyl)-5-[(1-hydroxy-2-methyl)propyl]pyridine] | 29.2 | –
2 | COC(C)c1c(C(C)C)nc(C(C)C)c(CO)c1-c1ccc(F)cc1 (racemic) [Example 98, (±)-2,6-Diisopropyl-3-hydroxymethyl-4-(4-fluorophenyl)-5-(1-methoxyethyl)pyridine] | – | 14000
3 | CCC(OC)c1c(C(C)C)nc(C(C)C)c(CO)c1-c1ccc(F)cc1 (racemic) [Example 99, (±)-2,6-Diisopropyl-3-hydroxymethyl-4-(4-fluorophenyl)-5-(1-methoxy-5-propyl)pyridine] | 43.2 | –
4 | CC(C)c1nc(C(C)C)c(C(C)O)c(-c2ccc(F)cc2)c1CSc1ccccc1 (racemic) [Example 113, (±)-2,6-Diisopropyl-3-(1-hydroxyethyl)-4-(4-fluorophenyl)-5-phenylthio-methylpyridine] | – | 600
5 | C=CC(O)c1c(C(C)C)nc(C(C)C)c(CCCCC)c1-c1ccc(F)cc1 (racemic) [Example 114, (±)-2,6-Diisopropyl-3-(1-hydroxy-2-propenyl)-4-(4-fluorophenyl)-5-pentylpyridine] | 38.5 | –
6 | CCCCCc1c(C(C)C)nc(C(C)C)c(C(O)CCCC)c1-c1ccc(F)cc1 (racemic) [Example 115, (±)-2,6-Diisopropyl-3-(1-hydroxypentyl)-4-(4-fluorophenyl)-5pentyl-pyridine] | 21.1 | –
7 | C=CCC(O)c1c(C(C)C)nc(C(C)C)c(CCCCC)c1-c1ccc(F)cc1 (racemic) [Example 116] | 17 | –
8 | CCCCCc1c(C(C)C)nc(C(C)C)c(C(O)C(F)(F)F)c1-c1ccc(F)cc1 (racemic) [Example 118, (±)-2,6-Diisopropyl-3-(2,2,2-trifluoro-1-hydroxy)ethyl-4-(4-fluoro-phenyl)-5-pentylpyridine] | – | 13000
9 | CCCCCc1c(C(C)C)nc(C(C)C)c(C(O)CO)c1-c1ccc(F)cc1 (racemic) [Example 124, (±)-2,6-Diisopropyl-3-(1,2-dihydroxyethyl)-4-(4-fluorophenyl)-5-pentyl-pyridine] | – | 12000
10 | CCCc1c(C(C)C)cc(C(C)C)c(CO)c1-c1ccc(F)cc1O (racemic) [Example 241, 3,5-Diisopropyl-2-hydroxymethyl-6-propyl-4'-fluoro-2'-hydroxy-1,1'-biphenyl] | – | 110
11 | CCCCCc1c(C(C)C)nc(C(C)C)c(C(O)C[S@+]([O-])c2ccc(C)cc2)c1-c1ccc(F)cc1 (single isomer, unassigned) [Example 112] | 4.17 | –
12 | CCCCCc1c(C(C)C)nc(C(C)C)c(C(C)O)c1-c1ccccc1O (single isomer, unassigned) [Example 164-D2, 2,6-Diisopropyl-3-(1-hydroxyethyl)-4-(2-hydroxyphenyl)-5-pentylpyridine] | – | 100
13 | CCCc1c(C(C)C)nc(C(C)C)c(CO)c1-c1ccc(F)cc1O (single isomer, unassigned) [Example 239-E2, 2,6-Diisopropyl-3-(1-hydroxymethyl)-4-(4-fluoro-2-hydroxyphenyl)-5-propylpyridine] | – | 50
14 | CCCCCc1c(C(C)C)cc(C(C)C)c(C(C)O)c1-c1ccc(F)cc1 (single isomer, unassigned; (+)) [Example 193, (+)-3,5-Diisopropyl-2-(1-hydroxyethyl)-6-pentyl-4'-fluoro-1,1-biphenyl] | – | 86
15 | CCc1c(C(C)C)cc(C(C)C)c(C(C)O)c1-c1ccc(F)cc1 (single isomer, unassigned; (+)) [Example 244, (+)-3,5-Diisopropyl-2-(1-hydroxyethyl)-6-ethyl-4'-fluoro-1,1'-biphenyl] | – | 180
16 | Cc1ccc(SCc2c(C(C)C)cc(C(C)C)c(C(C)O)c2-c2ccc(F)cc2)cc1 (single isomer, unassigned; (+)) [Example 249, (+)-3,5-Diisopropyl-2-[(p-tolylthio)methyl]-6-(1-hydroxyethyl)-4'-fluoro-1,1'-biphenyl] | – | 130
17 | CCCC=Cc1c(CC)nc(CC)c(CO)c1-c1ccccc1 [Example 6] | 34.2 | –
18 | C=Cc1c(CC)nc(CC)c(CO)c1-c1ccccc1 [Example 8] | 17 | –
19 | CCc1nc(CC)c(CO)c(-c2ccccc2)c1CC [Example 9] | 16.6 | –
20 | CC=Cc1c(C(C)C)nc(C(C)C)c(CO)c1-c1ccccc1 [Example 12] | – | 1700
21 | CCC=Cc1c(C(C)C)nc(C(C)C)c(CO)c1-c1ccccc1 [Example 13] | – | 3000
22 | CCCCCCc1c(C(C)C)nc(C(C)C)c(CO)c1-c1ccccc1 [Example 16, 2,6Diisopropyl-3-hydroxymethyl-4-phenyl-5-hexylpyridine] | – | 850

Results, then the molecule that gave them:

Row | inhibition at 20 µM [%] | IC50 [nM] | SMILES
23 | 28.3 | – | CC(C)c1nc(C(C)C)c(C(C)O)c(-c2ccc(F)cc2)c1CO (racemic) [Example 93, (±)-2,6-Diisopropyl-3-hydroxymethyl-4-(4-fluorophenyl-5-(1-hydroxy-ethyl)pyridine]
24 | 38.5 | – | CCC(O)c1c(C(C)C)nc(C(C)C)c(CO)c1-c1ccc(F)cc1 (racemic) [Example 94, (±)-2,6-Diisopropyl-3-hydroxymethyl-4-(4-fluorophenyl)-5-(1-hydroxy-propyl)pyridine]
25 | 26.5 | – | CCCCC(O)c1c(C(C)C)nc(C(C)C)c(CO)c1-c1ccc(F)cc1 (racemic) [Example 95, (±)-2,6-Diisopropyl-3-hydroxymethyl-4-(4-fluorophenyl)-5-(1-hydroxy-pentyl)pyridine]
26 | 27.8 | – | CC(C)c1nc(C(C)C)c(C(O)c2ccccc2)c(-c2ccc(F)cc2)c1CO (racemic) [Example 96, (±)-2,6-Diisopropyl-3-hydroxymethyl-4-(4-fluorophenyl)-5-(hydroxy-phenylmethyl)pyridine]
27 | 39.6 | – | CCCCC(OC)c1c(C(C)C)nc(C(C)C)c(CO)c1-c1ccc(F)cc1 (racemic) [Example 100, (±)-2,6-Diisopropyl-3-hydroxymethyl-4-(4-fluorophenyl)-5-(1-methoxy-pentyl)pyridine]
28 | 45.1 | – | CCCCCc1c(C(C)C)nc(C(C)C)c(C(O)CC)c1-c1ccc(F)cc1 (racemic) [Example 117]
29 | – | 80 | CCCc1c(C(C)C)nc(C(C)C)c(CO)c1-c1ccc(F)cc1O (racemic) [Example 239-rac, 2,6-Diisopropyl-3-(1-hydroxymethyl)-4-(4-fluoro-2-hydroxyphenyl)-5-propylpyridine]
30 | – | 3000 | CCCCCc1c(C(C)C)nc(C(C)C)c(C(C)O)c1-c1ccc(F)cc1 (single isomer, unassigned) [Example 107, 2,6-Diisopropyl-3-(1-hydroxyethyl-4-fluorophenyl)-5-pentylpyridine]
31 | – | 45 | CCCCCc1c(C(C)C)nc(C(C)C)c(C(C)O)c1-c1ccccc1O (single isomer, unassigned) [Example 164-D1, 2,6-Diisopropyl-3-(1-hydroxyethyl)-4-(2-hydroxyphenyl)-5-pentylpyridine]
32 | – | 2500 | CCCc1c(C(C)C)nc(C(C)C)c(CO)c1-c1ccc(F)cc1O (single isomer, unassigned) [Example 239-E1, 2,6-Diisopropyl-3-(1-hydroxymethyl)-4-(4-fluoro-2-hydroxyphenyl)-5-propylpyridine]
33 | – | 86 | CCCCCc1c(C(C)C)cc(C(C)C)c(C(C)O)c1-c1ccc(F)cc1 (single isomer, unassigned; (+)) [Example 243, (+)-3,5-Diisopropyl-2-(1-hydroxyethyl)-6-pentyl-4'-fluoro-1,1'-biphenyl]
34 | – | 300 | CCCc1c(C(C)C)cc(C(C)C)c(C(C)O)c1-c1ccc(F)cc1 (single isomer, unassigned; (+)) [Example 245, (+)-3,5-Diisopropyl-2-(1-hydroxyethyl)-6-propyl-4'-fluoro-1,1'-biphenyl]
35 | – | 310 | Cc1ccc(COCc2c(C(C)C)cc(C(C)C)c(C(C)O)c2-c2ccc(F)cc2)cc1 (single isomer, unassigned; (+)) [Example 248, (+)-3,5-Diisopropyl-2-[(p-methylbenzyloxy)methyl]-6-(1-hydroxyethyl)-4'-fluoro-1,1'-biphenyl]
36 | – | 600 | CCCCCc1c(C(C)C)nc(C(C)C)c(CO)c1-c1ccc(F)cc1 [Example 1]
37 | 2.73 | – | CC(C)=Cc1c(C)nc(C)c(CO)c1-c1ccccc1 [Example 2]
38 | 1.52 | – | CCCC=Cc1c(C)nc(C)c(CO)c1-c1ccccc1 [Example 3]
39 | 1.98 | – | CCCCCc1c(C)nc(C)c(CO)c1-c1ccccc1 [Example 4]
40 | 12.4 | – | CCc1nc(CC)c(CO)c(-c2ccccc2)c1C=C(C)C [Example 5]
41 | – | 8000 | CC(C)=Cc1c(C(C)C)nc(C(C)C)c(CO)c1-c1ccccc1 [Example 11]
42 | – | 600 | CCCc1c(C(C)C)nc(C(C)C)c(CO)c1-c1ccccc1 [Example 17]

From patent publication US6218431A, “Substituted biphenyls” (Bayer Corporation, priority 1997, dated 2001)
